Measured values reported in US20230058316A1, “PEGYLATED IGE-DEPENDENT HISTAMINE-RELEASING FACTOR (HRF)-BINDING PEPTIDE AND USE THEREOF” (EWHA UNIVERSITY - INDUSTRY COLLABORATION FOUNDATION, priority 2020, published 2023).
Read-outs that look alike come from different tables or passages of the source. Where no end group is shown, it is not given here.

Key:
IL-13 = IL-13 secretion in bronchoalveolar lavage fluid, ovalbumin-induced bronchial asthma and rhinitis mouse model; format: in vivo; settings: 1 mg/kg IP
Experimental: A bronchial asthma and rhinitis animal model was prepared by the following method. An ovalbumin solution was prepared by dissolving ovalbumin in an aluminum hydroxide solution (1 mg/ml) 28 and 14 days before the start of inducing bronchial asthma and rhinitis, and 200 μl of the solution was intraperitoneally injected into each mouse for sensitization. After 14 days of final sensitization, 20 μl of saline/PBS (normal control; NC) or 20 μl of 10 mg/mL ovalbumin solution (positive control; PC) was instilled into the nasal cavity of each lightly anesthetized mouse 4 times every other day for 8 days to induce bronchial asthma and rhinitis.
After the end of the experiment, the amount of IL-13 in the supernatant obtained by centrifuging bronchoalveolar lavage fluid was measured and quantified by enzyme immunosorbent detection using mouse IL-13 ELISA kit (R&D system, USA).
Next, in order to confirm whether there is an effect of inhibiting IL-13 secretion even when administered in a small number of times, the dTBP2 of Preparative Example 4 and Example 3 was administered to the mouse model of Example 4-1 through intraperitoneal injection once in 4 days for a total of 2 times for 8 days inducing bronchial asthma and rhinitis. The amount of IL-13 was measured and quantified by the enzyme immunosorbent detection method in the same manner.
In addition, the dTBP2 of Preparative Example 4 and Example 3 was administered to the mouse model of Example 4-1 through intraperitoneal injection once on the 1st day of 8 days inducing bronchial asthma and rhinitis. The amount of IL-13 was measured and quantified by the enzyme immunosorbent detection method in the same manner.
The amount of IL-13 was measured and quantified by the enzyme immunosorbent detection method in the same manner.

[1] = microsomes; for Mouse (%) remaining after reaction: 0.5 h
Experimental: Upon completion of the reaction, cold acetonitrile containing internal standard was added, and then deproteinization was carried out. The reactant was centrifuged at 4° C., 4000 rpm for 15 minutes, and the supernatant was analyzed by LC-MS/MS. The system was verified with buspirone, a reference material.

Example 3: dTBP2 (WYVYPSM) conjugated at the N-terminal with methoxy polyethylene glycol propionaldehyde (10 kDa) ({mPEG propionaldehyde 10 kDa}-WYVYPSM)
reduction of IL-13 secretion (IL-13; 8 times daily for 8 days, FIG. 18): about 20%
inhibiting IL-13 secretion (IL-13; once in 4 days for a total of 2 times (FIG. 19) and once on the 1st day (FIG. 20)): effective
IL-13 secretion inhibitory effect (IL-13; once on the 5th day of 8 days, FIG. 21): inhibitory effect
Mouse (%) remaining after reaction [1]: more than 75%
Mouse (%) remaining after reaction ([1]; pH 7.4): 75.26%
half-life according to the evaluation criteria ([1]; mouse): 1 to 3 h
